Results published in paper PMC5376326, “Inhibition of ANO1 by luteolin and its cytotoxicity in human prostate cancer PC-3 cells” (PLoS ONE, 2017).

Tested on: ANO1
Assay: not given
Conditions: read-out: IC50, ANO1 inhibition; cited from earlier work

Compound	IC50 [nM]
COc1cc(Nc2ccc([N+](=O)[O-])cc2C(=O)O)cc2ccccc12 [MONNA]	~1000
CCc1c(C)nc(SCC(=O)Nc2nc(-c3ccc(OC)cc3)cs2)[nH]c1=O [T16Ainh-A01]	~1000
COC1=C(OC)C(=O)C(CCCCCCCCCCO)=C(C)C1=O [idebenone]	~9000
tannic acid	~6000

Molecular target: T1, human ANO1 (abc) (Homo sapiens, UniProt Q5XXA6, DEL476-501)
T1 sequence (Q5XXA6 with tags, fused parts or gaps isoform Q5XXA6-5 DEL539-564): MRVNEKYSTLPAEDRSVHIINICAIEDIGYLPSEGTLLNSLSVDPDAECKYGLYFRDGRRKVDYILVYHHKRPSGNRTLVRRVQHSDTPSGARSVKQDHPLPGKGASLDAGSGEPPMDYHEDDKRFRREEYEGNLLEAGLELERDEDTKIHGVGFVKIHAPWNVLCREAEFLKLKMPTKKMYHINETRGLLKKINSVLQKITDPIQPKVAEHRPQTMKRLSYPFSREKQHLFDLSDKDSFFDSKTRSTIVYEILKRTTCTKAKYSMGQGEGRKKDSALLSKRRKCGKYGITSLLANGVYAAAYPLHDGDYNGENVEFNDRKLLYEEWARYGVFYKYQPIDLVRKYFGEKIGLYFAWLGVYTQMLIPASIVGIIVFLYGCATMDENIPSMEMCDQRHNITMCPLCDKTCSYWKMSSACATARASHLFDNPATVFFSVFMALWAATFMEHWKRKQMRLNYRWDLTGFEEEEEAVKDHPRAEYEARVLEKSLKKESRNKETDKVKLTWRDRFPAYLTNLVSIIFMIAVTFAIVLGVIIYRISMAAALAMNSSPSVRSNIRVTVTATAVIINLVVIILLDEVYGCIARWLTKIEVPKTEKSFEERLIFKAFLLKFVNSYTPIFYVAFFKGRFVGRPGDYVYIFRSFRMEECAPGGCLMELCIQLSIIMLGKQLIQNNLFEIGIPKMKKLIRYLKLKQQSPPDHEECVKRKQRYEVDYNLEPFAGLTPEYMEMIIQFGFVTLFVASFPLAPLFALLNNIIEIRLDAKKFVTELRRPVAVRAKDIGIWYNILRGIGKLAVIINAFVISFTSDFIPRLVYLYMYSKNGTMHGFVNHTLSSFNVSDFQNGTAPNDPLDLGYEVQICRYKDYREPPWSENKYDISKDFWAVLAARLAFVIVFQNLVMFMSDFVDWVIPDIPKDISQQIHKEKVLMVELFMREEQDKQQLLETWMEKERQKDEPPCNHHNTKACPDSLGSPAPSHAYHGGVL
Assay: YFP fluorescence quenching assay (iodide influx) in FRT cells expressing human ANO1
Type: cell-based
Conditions: FRT cells expressing ANO1 and YFP; ATP activation; mean ± S.E., n = 3; read-out: IC50, ANO1 inhibition (YFP fluorescence quenching)
Protocol: Fisher rat thyroid (FRT) cells were stably transfected with human ANO1 (abc) or mouse ANO2 and the halide sensor YFP as described in previous study. FRT cells were cultured in Coon`s modified F12 medium with 10% FBS, 2 mM L-glutamine, 100 units/ml penicillin and 100 μg/ml streptomycin at 37°C and 5% CO2. PC-3 cells were grown in RPMI 1640 medium supplemented with 10% FBS, 100 units/ml penicillin and 100 μg/ml streptomycin at 37°C and 5% CO2. There were populations of PC-3 cells with high and low expression of ANO1. To separate high and low levels of ANO1 expressing PC-3 cells, cells were stably transfected with the halide sensor YFP-H148Q/I152L/F46L and then the cells were plated on 96 well plates at 1 cell per well. After two weeks of incubation, high and low levels of ANO1 expressing PC-3 cells were separated by YFP quenching assay. ANO1 was activated by 100 μM ATP.
ANO1 and YFP expressing FRT cells were plated in 96-well black-walled microplates (Corning Inc., Corning, NY) at a density of 20,000 cells per well. Assays were done using FLUOstar Omega microplate reader (BMG Labtech, Ortenberg, Germany) and MARS Data Analysis Software (BMG Labtech) as described in our previous study. Briefly, each well of 96-well plate was washed 3 times in PBS (200 μL/wash) and test compounds were added to each well at 25 μM final concentration. After 10 minutes incubation at 37°C, 96-well plates were transferred to the plate reader for fluorescence assay. Each well was assayed individually for ANO1-mediated I^- influx by monitoring YFP fluorescence continuously (400 ms per point) for 2 s (baseline), then 140 mM I^- solution containing 200 μM ATP was added at 2 s and then YFP fluorescence was recorded for 6 s. Initial iodide influx rate was determined from the initial slope of fluorescence decrease, by nonlinear regression, following infusion of iodide with ATP.

IC50 [µM]	Compound
15.79 ± 0.03	O=c1cc(-c2ccc(O)cc2)oc2cc(O)cc(O)c12 [Apigenin]
15.15 ± 0.1	O=c1cc(-c2ccccc2)oc2cc(O)cc(O)c12 [Chrysin]
9.66 ± 0.01	O=c1c(O)c(-c2ccccc2)oc2cc(O)cc(O)c12 [Galangin]

Compound	IC50 [µM]
O=c1cc(-c2ccccc2)oc2cc(O)c(O)c(O)c12 [Baicalein]	49.6 ± 0.05
